Experiments:
Experiment in all cases: relative viability (nuclei count vs DMSO), 5 days (fraction); higher = more cells survive
HCC-827 = test system: HCC-827
In short: (§1)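 For relative viability, nuclei counts in treated wells were divided by those in vehicle wells. Lung cancer cell lines had been pin-tool dosed in 1536-well plates the day after seeding and cultured for 5 days, then fixed and stained in one step (final 0.05% Triton X-100, 1% formaldehyde, 1 ug/ml Hoechst) and imaged at 4×. Doses were one drug alone or a fixed anchor-drug dose plus five library-drug doses (not always all listed) in √10 steps, and values are duplicate-plate medians.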

EMC-BAC-2 = test system: EMC-BAC-2
In short: as §1

NCI-H322M = test system: NCI-H322M
In short: as §1

NCI-H23 = test system: NCI-H23
In short: as §1

EKVX = test system: EKVX
In short: as §1

PC-14 = test system: PC-14
In short: as §1

NCI-H1666 = test system: NCI-H1666
In short: as §1

EPLC-272H = test system: EPLC-272H
In short: as §1

NCI-H2405 = test system: NCI-H2405
In short: as §1

SK-LU-1 = test system: SK-LU-1
In short: as §1

NCI-H1975 = test system: NCI-H1975
In short: as §1

LCLC-103H = test system: LCLC-103H
In short: as §1

LU99A = test system: LU99A
In short: as §1

SW 1573 = test system: SW 1573
In short: as §1

RERF-LC-KJ = test system: RERF-LC-KJ
In short: as §1

HCC-78 = test system: HCC-78
In short: as §1

NCI-H1563 = test system: NCI-H1563
In short: as §1

LXF-289 = test system: LXF-289
In short: as §1

LK-2 = test system: LK-2
In short: as §1

NCI-H2126 = test system: NCI-H2126
In short: as §1

ChaGo-K-1 = test system: ChaGo-K-1
In short: as §1

## COc1nc(C)cnc1NS(=O)(=O)c1cccnc1-c1ccc(-c2nnco2)cc1 [Zibotentan] + C[C@@H](Oc1cc(-c2cnn(C3CCNCC3)c2)cnc1N)c1c(Cl)ccc(F)c1Cl [Crizotinib] (partner 1 µM)
HCC-827; first compound 0.08 µM
  relative viability: 0.944
HCC-827; first compound 0.253 µM
  relative viability: 0.955
HCC-827; first compound 0.8 µM
  relative viability: 0.946
HCC-827; first compound 2.53 µM
  relative viability: 0.987
EMC-BAC-2; first compound 0.08 µM
  relative viability: 0.843
EMC-BAC-2; first compound 0.253 µM
  relative viability: 0.751
EMC-BAC-2; first compound 0.8 µM
  relative viability: 0.778
EMC-BAC-2; first compound 2.53 µM
  relative viability: 0.754
NCI-H322M; first compound 0.08 µM
  relative viability: 0.932
NCI-H322M; first compound 0.253 µM
  relative viability: 0.901
NCI-H322M; first compound 0.8 µM
  relative viability: 0.496
NCI-H322M; first compound 2.53 µM
  relative viability: 0.934
NCI-H23; first compound 0.08 µM
  relative viability: 0.54
NCI-H23; first compound 0.253 µM
  relative viability: 0.552
NCI-H23; first compound 0.8 µM
  relative viability: 0.565
NCI-H23; first compound 2.53 µM
  relative viability: 0.593
EKVX; first compound 0.08 µM
  relative viability: 0.875
EKVX; first compound 0.253 µM
  relative viability: 0.733
EKVX; first compound 0.8 µM
  relative viability: 0.848
EKVX; first compound 2.53 µM
  relative viability: 1.03
PC-14; first compound 0.08 µM
  relative viability: 0.907
PC-14; first compound 0.253 µM
  relative viability: 0.882
PC-14; first compound 0.8 µM
  relative viability: 0.968
PC-14; first compound 2.53 µM
  relative viability: 0.899
NCI-H1666; first compound 0.08 µM
  relative viability: 1.01
NCI-H1666; first compound 0.253 µM
  relative viability: 0.856
NCI-H1666; first compound 0.8 µM
  relative viability: 1.15
NCI-H1666; first compound 2.53 µM
  relative viability: 0.996
EPLC-272H; first compound 0.08 µM
  relative viability: 0.841
EPLC-272H; first compound 0.253 µM
  relative viability: 0.841
EPLC-272H; first compound 0.8 µM
  relative viability: 1.38
EPLC-272H; first compound 2.53 µM
  relative viability: 0.951
NCI-H2405; first compound 0.08 µM
  relative viability: 0.907
NCI-H2405; first compound 0.253 µM
  relative viability: 0.882
NCI-H2405; first compound 0.8 µM
  relative viability: 0.789
NCI-H2405; first compound 2.53 µM
  relative viability: 0.881
SK-LU-1; first compound 0.08 µM
  relative viability: 0.879
SK-LU-1; first compound 0.253 µM
  relative viability: 0.841
SK-LU-1; first compound 0.8 µM
  relative viability: 0.928
SK-LU-1; first compound 2.53 µM
  relative viability: 1.05
NCI-H1975; first compound 0.08 µM
  relative viability: 1.04
NCI-H1975; first compound 0.253 µM
  relative viability: 0.871
NCI-H1975; first compound 0.8 µM
  relative viability: 0.837
NCI-H1975; first compound 2.53 µM
  relative viability: 0.967
LCLC-103H; first compound 0.08 µM
  relative viability: 0.932
LCLC-103H; first compound 0.253 µM
  relative viability: 0.965
LCLC-103H; first compound 0.8 µM
  relative viability: 0.97
LCLC-103H; first compound 2.53 µM
  relative viability: 1.05
LU99A; first compound 0.08 µM
  relative viability: 0.537
LU99A; first compound 0.253 µM
  relative viability: 0.527
LU99A; first compound 0.8 µM
  relative viability: 0.645
LU99A; first compound 2.53 µM
  relative viability: 0.617
SW 1573; first compound 0.08 µM
  relative viability: 0.923
SW 1573; first compound 0.253 µM
  relative viability: 0.745
SW 1573; first compound 0.8 µM
  relative viability: 0.822
SW 1573; first compound 2.53 µM
  relative viability: 0.856
RERF-LC-KJ; first compound 0.08 µM
  relative viability: 0.921
RERF-LC-KJ; first compound 0.253 µM
  relative viability: 0.802
RERF-LC-KJ; first compound 0.8 µM
  relative viability: 0.786
RERF-LC-KJ; first compound 2.53 µM
  relative viability: 0.855
HCC-78; first compound 0.08 µM
  relative viability: 0.336
HCC-78; first compound 0.253 µM
  relative viability: 0.311
HCC-78; first compound 0.8 µM
  relative viability: 0.324
HCC-78; first compound 2.53 µM
  relative viability: 0.343
NCI-H1563; first compound 0.08 µM
  relative viability: 0.821
NCI-H1563; first compound 0.253 µM
  relative viability: 0.512
NCI-H1563; first compound 0.8 µM
  relative viability: 0.874
NCI-H1563; first compound 2.53 µM
  relative viability: 0.895
LXF-289; first compound 0.08 µM
  relative viability: 0.882
LXF-289; first compound 0.253 µM
  relative viability: 0.804
LXF-289; first compound 0.8 µM
  relative viability: 0.822
LXF-289; first compound 2.53 µM
  relative viability: 0.805
LK-2; first compound 0.08 µM
  relative viability: 0.259
LK-2; first compound 0.253 µM
  relative viability: 0.237
LK-2; first compound 0.8 µM
  relative viability: 0.253
LK-2; first compound 2.53 µM
  relative viability: 0.241
NCI-H2126; first compound 0.08 µM
  relative viability: 1.01
NCI-H2126; first compound 0.253 µM
  relative viability: 0.94
NCI-H2126; first compound 0.8 µM
  relative viability: 0.992
NCI-H2126; first compound 2.53 µM
  relative viability: 1.05
ChaGo-K-1; first compound 0.08 µM
  relative viability: 1.33
ChaGo-K-1; first compound 0.8 µM
  relative viability: 1.09
ChaGo-K-1; first compound 2.53 µM
  relative viability: 1.21

From the supplement of paper PMC10307832
